Assay results: ChEMBL document CHEMBL4673218, “Kojyl cinnamate esters are peroxisome proliferator-activated receptor α/γ dual agonists” (Bioorg Med Chem, 2018)
Activity calls are given as the source filed them.

Columns and labels:
[1] = target: T1, PPAR alpha/gamma (Homo sapiens) (UniProt P37231+Q07869); test: Agonist activity at PPARalpha/PPARgamma in human AT-MSC cells assessed as upregulation of FASN mRNA at 10 uM incubated for 3 days by qRT-PCR analysis; assay type: cell-based; conditions: Adipose tissue derived mesenchymal stem cell, filed as agonist, time 3.0 day
[2] = target: T2, Oxysterols receptor LXR-alpha (Homo sapiens) (UniProt Q13133); test: Binding affinity to human LXRalpha at 30 uM by competitive ligand binding based TR-FRET assay
T2 sequence (whole entry): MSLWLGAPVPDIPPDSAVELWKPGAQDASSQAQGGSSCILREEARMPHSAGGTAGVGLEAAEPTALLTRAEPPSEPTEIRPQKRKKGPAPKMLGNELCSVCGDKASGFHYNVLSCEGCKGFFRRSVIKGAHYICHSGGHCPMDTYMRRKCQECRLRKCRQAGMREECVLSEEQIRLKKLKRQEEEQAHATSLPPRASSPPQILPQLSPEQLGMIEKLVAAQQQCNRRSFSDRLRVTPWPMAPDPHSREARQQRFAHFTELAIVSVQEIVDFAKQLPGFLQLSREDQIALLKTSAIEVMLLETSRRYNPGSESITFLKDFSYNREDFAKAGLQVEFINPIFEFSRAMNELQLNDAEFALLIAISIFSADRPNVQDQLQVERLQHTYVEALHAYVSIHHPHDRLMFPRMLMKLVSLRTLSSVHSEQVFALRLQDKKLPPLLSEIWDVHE

[3] = target: T1, PPAR alpha/gamma (Homo sapiens); test: Agonist activity at PPARalpha/PPARgamma in human NHEK cells assessed as upregulation of FADS2 mRNA at 10 uM incubated for 3 days by qRT-PCR analysis; assay type: cell-based; conditions: filed as agonist, time 3.0 day
[4] = tested on: NHEK; test: Inhibition of UVB-induced MMP1 level in human NHEK cells at 10 uM incubated for 24 hrs by ELISA; assay type: functional, cell-based
[5] = target: T3, Peroxisome proliferator-activated receptor delta (Homo sapiens) (UniProt Q03181); test: Binding affinity to human recombinant PPARdelta at 30 uM by competitive binding based TR-FRET assay
T3 sequence (whole entry): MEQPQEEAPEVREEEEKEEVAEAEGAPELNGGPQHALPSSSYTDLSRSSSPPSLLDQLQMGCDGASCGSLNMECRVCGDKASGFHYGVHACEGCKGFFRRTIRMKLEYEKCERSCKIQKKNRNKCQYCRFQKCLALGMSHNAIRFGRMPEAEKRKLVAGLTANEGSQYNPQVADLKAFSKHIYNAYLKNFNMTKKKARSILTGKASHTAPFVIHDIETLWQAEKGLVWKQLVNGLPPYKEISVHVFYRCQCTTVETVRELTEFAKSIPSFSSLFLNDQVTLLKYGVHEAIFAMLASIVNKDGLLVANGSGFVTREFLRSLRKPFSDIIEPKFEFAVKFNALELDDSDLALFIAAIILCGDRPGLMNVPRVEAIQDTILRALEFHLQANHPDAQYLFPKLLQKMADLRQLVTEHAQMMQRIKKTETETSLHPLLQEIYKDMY

[6] = Induction of adipogenesis in human AT-MSC assessed as adiponectin secretion at 30 uM in IDX medium incubated for 5 days by ELISA (reference value: 100 +/- 15 pg/ml); assay type: functional, Adipose tissue derived mesenchymal stem cell; conditions: time 5 day
[7] = target: T4, Peroxisome proliferator-activated receptor alpha (Homo sapiens) (UniProt Q07869); test: Binding affinity to human recombinant PPARalpha at 30 uM by competitive binding based TR-FRET assay relative to control; conditions: filed as agonist
T4 sequence (whole entry): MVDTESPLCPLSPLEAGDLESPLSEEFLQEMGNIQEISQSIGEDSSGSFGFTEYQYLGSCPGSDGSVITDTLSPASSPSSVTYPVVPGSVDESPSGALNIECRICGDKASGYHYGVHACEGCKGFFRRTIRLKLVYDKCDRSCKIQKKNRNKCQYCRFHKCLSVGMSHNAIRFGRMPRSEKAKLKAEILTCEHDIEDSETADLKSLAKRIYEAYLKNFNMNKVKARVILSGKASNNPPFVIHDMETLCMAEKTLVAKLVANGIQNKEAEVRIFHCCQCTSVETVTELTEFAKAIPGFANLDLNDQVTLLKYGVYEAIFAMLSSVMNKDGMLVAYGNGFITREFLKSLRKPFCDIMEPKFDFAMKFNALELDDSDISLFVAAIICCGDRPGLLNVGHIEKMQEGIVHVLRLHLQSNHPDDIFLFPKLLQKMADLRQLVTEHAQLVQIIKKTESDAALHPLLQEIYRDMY

[8] = target: T1, PPAR alpha/gamma (Homo sapiens); test: Agonist activity at PPARalpha/PPARgamma in human AT-MSC cells assessed as upregulation of adiponectin mRNA at 10 uM incubated for 3 days by qRT-PCR analysis; assay type: cell-based; conditions: Adipose tissue derived mesenchymal stem cell, filed as agonist, time 3.0 day
[9] = tested on: NHEK; test: Inhibition of UVB-induced MMP1 mRNA in human NHEK cells at 10 uM incubated for 24 hrs by qRT-PCR analysis; assay type: functional, cell-based
[10] = target: T5, Glucocorticoid receptor (Homo sapiens) (UniProt P04150); test: Binding affinity to human glucocorticoid receptor at 30 uM by competitive binding based TR-FRET assay
T5 sequence (whole entry): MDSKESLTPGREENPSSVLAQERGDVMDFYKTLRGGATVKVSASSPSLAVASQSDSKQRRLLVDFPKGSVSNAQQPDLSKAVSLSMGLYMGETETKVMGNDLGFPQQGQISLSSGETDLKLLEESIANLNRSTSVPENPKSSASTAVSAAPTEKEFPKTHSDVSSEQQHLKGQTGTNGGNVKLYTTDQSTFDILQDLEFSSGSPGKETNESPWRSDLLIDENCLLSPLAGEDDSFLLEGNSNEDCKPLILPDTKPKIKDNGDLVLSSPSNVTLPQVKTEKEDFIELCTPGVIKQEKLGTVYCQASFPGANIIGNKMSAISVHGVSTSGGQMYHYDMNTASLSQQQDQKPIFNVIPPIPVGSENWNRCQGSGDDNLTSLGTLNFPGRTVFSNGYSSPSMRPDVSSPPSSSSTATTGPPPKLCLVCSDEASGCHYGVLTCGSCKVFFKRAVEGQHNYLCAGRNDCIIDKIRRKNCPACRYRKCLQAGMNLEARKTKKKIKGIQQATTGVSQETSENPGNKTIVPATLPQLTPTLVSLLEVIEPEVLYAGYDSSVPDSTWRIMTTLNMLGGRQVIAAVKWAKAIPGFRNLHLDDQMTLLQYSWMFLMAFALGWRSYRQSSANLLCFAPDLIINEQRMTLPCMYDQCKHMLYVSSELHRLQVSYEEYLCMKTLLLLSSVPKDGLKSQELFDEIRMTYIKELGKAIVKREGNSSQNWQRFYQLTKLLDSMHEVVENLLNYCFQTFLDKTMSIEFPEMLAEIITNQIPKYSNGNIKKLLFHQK

[11] = tested on: NHEK; test: Inhibition of UVB-induced PTGS2 mRNA in human NHEK cells at 10 uM incubated for 24 hrs by qRT-PCR analysis; assay type: functional, cell-based
[12] = target: T1, PPAR alpha/gamma (Homo sapiens); test: Agonist activity at PPARalpha/PPARgamma in human NHEK cells assessed as upregulation of FADS1 mRNA at 10 uM incubated for 3 days by qRT-PCR analysis; assay type: cell-based; conditions: filed as agonist, time 3.0 day

T1 sequence (P37231 whole entry, looked up, one chain of several): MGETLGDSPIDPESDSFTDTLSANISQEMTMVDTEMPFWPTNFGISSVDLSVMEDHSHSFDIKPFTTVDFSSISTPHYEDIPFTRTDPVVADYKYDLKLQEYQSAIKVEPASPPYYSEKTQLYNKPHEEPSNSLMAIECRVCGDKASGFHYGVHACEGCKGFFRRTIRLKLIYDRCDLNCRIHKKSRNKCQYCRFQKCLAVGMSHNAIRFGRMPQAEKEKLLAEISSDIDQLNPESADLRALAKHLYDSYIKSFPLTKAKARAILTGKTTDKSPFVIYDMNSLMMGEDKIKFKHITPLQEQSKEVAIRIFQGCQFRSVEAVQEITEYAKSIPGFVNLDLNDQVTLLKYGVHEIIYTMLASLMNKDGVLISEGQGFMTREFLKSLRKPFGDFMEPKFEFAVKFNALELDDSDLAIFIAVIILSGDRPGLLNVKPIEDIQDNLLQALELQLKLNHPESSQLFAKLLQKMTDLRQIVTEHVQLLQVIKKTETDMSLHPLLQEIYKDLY

COc1ccc(OC)c(/C=C/C(=O)OCc2cc(=O)c(O)co2)c1
59%: Activity [7]
active: Activity [1] | Activity [3] | inhibition [4] | Activity [8] | inhibition [9] | inhibition [11] | Activity [12]
383 pg/mL: Activity [6]
inactive: Activity [2] | Activity [5] | Activity [10]
